Results: patent US20190127775A1 (priority 2016, published 2019)

Columns and labels:
[1] = system: methicillin resistant Staphylococcus aureus (MRSA; ATCC # 43300); assay: Whole cell anti-MRSA growth inhibition screen (OD590) of Un-Met and Pre-Met library plates; assay type: cell-based
Procedure: Next, a copy of the library in its un-metabolized form and a copy of the library in its pre-metabolized form were created. The buffer used for library metabolism was (4×=4 times the concentration of each component in the final solution): 4× KPMEN Buffer: 200 mM KH2PO4; 4 mM K2EDTA; 20 mM glucose-6-phosphate, disodium salt (G6P); 4 mM NADPH, tetrasodium salt; pH adjusted to 7.4 with 1 M KOH. To each well in 1 set of the Reconstituted Copy Plates was added 45 μL 1.1× KEPNM Buffer to give 1 set of unmetabolized (“Un-Met”) Library Plates. […] Both sets of plates were incubated at room temperature for 24 hours with gentle rocking to provide 1 set of Un-Met Library Plates and 1 set of Pre-Met Library Plates. […]
Antibacterial activity screening was performed using methicillin resistant Staphylococcus aureus (MRSA; ATCC # 43300). […] The optical density of each well was then read at 590 nm (0D590) using a TECAN SpectraFluor Plus microtiter plate reader (Artisan Technology Group, Champaign, Ill.). These plates were also read prior to addition of bacteria to identify wells with compounds with a high OD590, so that these well could be examined manually for turbidity post bacterial growth, since a high prior OD590 would interfere with post bacterial growth OD590 measurement. […]

[2] = un-metabolized parent; only active after metabolic conversion into sulfanilamide; cited from earlier work

Compound | anti-MRSA activity in the Pre-Met plates ([1]; Pre-Met plates (human liver microsomes), cutoff OD590 0.18, 24 hours 35° C.) | anti-MRSA activity in the Un-Met plates ([1]; Un-Met plates, cutoff OD590 0.15, 24 hours 35° C.) | antibacterial activity in vitro [2]
COc1ccc2c(c1)[C@]13CCCC[C@@H]1[C@H](C2)N(C)CC3 [dextromethorphan] | not in the Pre-Met plates | had anti-MRSA activity | 
Nc1ccc(/N=N/c2ccc(S(N)(=O)=O)cc2)c(N)c1 [protosil, prontosil] |  |  | inactive in vitro
